Measured values published in ChEMBL document CHEMBL1128035, “Structural optimization of alkyl-substituted 2-(7-5H-[1]benzopyrano[2,3-b]pyridyl)propionic acid as anti-inflammatory agents” (Bioorg Med Chem Lett, 1995).
pIC50: −log10 of the molar value.

Key:
[1] = biological target: T1, Prostaglandin G/H synthase 1 (Ovis aries, UniProt P05979); assay: Inhibitory activity against COX-1 from ram seminal vesicles
T1 sequence (P05979 whole entry): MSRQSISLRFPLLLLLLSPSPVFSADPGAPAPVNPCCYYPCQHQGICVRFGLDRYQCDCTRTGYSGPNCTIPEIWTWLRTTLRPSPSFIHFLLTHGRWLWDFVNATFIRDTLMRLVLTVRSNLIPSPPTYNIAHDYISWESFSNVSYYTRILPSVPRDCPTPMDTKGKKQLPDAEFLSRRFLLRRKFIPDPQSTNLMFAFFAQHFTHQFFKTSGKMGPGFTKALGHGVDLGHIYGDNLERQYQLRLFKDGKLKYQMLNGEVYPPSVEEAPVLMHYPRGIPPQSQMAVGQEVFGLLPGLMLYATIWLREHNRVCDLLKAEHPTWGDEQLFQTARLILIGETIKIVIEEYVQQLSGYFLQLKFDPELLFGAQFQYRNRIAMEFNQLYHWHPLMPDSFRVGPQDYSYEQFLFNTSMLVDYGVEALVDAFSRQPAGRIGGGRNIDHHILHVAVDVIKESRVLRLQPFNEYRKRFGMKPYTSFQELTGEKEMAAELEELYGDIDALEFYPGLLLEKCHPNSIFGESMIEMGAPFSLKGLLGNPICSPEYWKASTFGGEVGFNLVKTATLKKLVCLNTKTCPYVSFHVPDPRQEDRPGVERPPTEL

[2] = Partition coefficient measured in n-octanol/ pH 7.4 phosphate buffer; assay type: physicochemical
[3] = biological target: T2, Prostaglandin G/H synthase 1 (Rattus norvegicus, UniProt Q63921); assay: Inhibitory activity against COX-1 from rat peritoneal leukocytes, measured by PGE-2 produced (enzyme immunoassay)
T2 sequence (Q63921 whole entry): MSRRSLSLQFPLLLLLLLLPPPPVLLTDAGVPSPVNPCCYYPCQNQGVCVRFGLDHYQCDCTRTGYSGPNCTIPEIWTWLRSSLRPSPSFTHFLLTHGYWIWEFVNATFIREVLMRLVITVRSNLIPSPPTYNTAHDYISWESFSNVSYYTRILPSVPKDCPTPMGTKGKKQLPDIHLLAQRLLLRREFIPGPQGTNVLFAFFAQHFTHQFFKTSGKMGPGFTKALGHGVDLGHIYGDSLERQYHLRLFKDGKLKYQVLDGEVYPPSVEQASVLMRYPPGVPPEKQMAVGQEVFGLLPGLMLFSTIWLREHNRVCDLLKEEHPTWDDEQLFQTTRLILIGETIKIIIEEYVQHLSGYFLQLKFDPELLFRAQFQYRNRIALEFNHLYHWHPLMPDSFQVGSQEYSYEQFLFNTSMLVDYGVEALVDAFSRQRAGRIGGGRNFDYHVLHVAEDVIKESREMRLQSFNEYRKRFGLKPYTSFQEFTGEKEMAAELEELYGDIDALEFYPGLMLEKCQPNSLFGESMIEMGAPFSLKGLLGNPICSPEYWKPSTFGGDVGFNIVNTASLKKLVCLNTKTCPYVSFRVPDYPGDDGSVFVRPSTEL

A pIC50 [1] of 6.07, a logD [2] of 0.45 and a pIC50 [3] of 6.96 were found for `CCc1ccc2c(n1)Oc1ccc(C(C)C(=O)O)cc1C2` (configuration not stated) in this work.
A pIC50 [1] of less than 4.00 and a logD [2] of -0.17 were found for `Cc1ccnc2c1Cc1cc(C(C)C(=O)O)ccc1O2` (configuration not stated) in this work.
A pIC50 [1] of less than 4.00 and a logD [2] of 1.08 were found for `CCCc1ccc2c(n1)Oc1ccc(C(C)C(=O)O)cc1C2` (configuration not stated) in this work.
A pIC50 [1] of 5.51, a logD [2] of -0.72 and a pIC50 [3] of 6.41 were found for `CC(C(=O)O)c1ccc2c(c1)Cc1cccnc1O2` (configuration not stated) [PRANOPROFEN] in this work.
A pIC50 [1] of 6.49, a logD [2] of -0.11 and a pIC50 [3] of 7.52 were found for `Cc1ccc2c(n1)Oc1ccc(C(C)C(=O)O)cc1C2` (configuration not stated) in this work.
A pIC50 [1] of less than 4.00 and a logD [2] of 0.67 were found for `CC(C)c1ccc2c(n1)Oc1ccc(C(C)C(=O)O)cc1C2` (configuration not stated) in this work.
A pIC50 [1] of 4.96 and a logD [2] of 0.03 were found for `Cc1cnc2c(c1)Cc1cc(C(C)C(=O)O)ccc1O2` (configuration not stated) in this work.
